The source of these data is the supplement of paper PMC10307832.

What all share (assay): relative viability (nuclei count vs DMSO), 5 days (fraction); higher = more cells survive
Compound in the assay “Carboplatin + Trametinib”: C1CC(C1)(C(=O)O)C(=O)O.[NH2-].[NH2-].[Pt+2] [Carboplatin] + CC(=O)Nc1cccc(-n2c(=O)n(C3CC3)c(=O)c3c(Nc4ccc(I)cc4F)n(C)c(=O)c(C)c32)c1 [Trametinib] (partner 0.02 µM)
A digest of the protocol: (§1)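 Lung cancer cell lines in 1536-well plates got either a single drug or a fixed anchor-drug dose together with five library-drug doses (not always all listed) in √10 steps, by pin tool, on the day after seeding. Nuclei were counted after 5 days, and relative viability is the treated-to-vehicle ratio of nuclei counts. Values are medians of duplicate plates.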

Compound in the assay “Carboplatin + Foretinib”: C1CC(C1)(C(=O)O)C(=O)O.[NH2-].[NH2-].[Pt+2] [Carboplatin] + COc1cc2c(Oc3ccc(NC(=O)C4(C(=O)Nc5ccc(F)cc5)CC4)cc3F)ccnc2cc1OCCCN1CCOCC1 [Foretinib] (partner 0.25 µM)
A digest of the protocol:
as §1

Compound in the assay “Carboplatin + Vorinostat”: C1CC(C1)(C(=O)O)C(=O)O.[NH2-].[NH2-].[Pt+2] [Carboplatin] + O=C(CCCCCCC(=O)Nc1ccccc1)NO [Vorinostat] (partner 1 µM)
A digest of the protocol: as §1

Compound in the assay “MLN4924 + Linsitinib”: NS(=O)(=O)OC[C@@H]1C[C@@H](n2ccc3c(N[C@H]4CCc5ccccc54)ncnc32)C[C@@H]1O [MLN4924] + C[C@]1(O)C[C@@H](c2nc(-c3ccc4ccc(-c5ccccc5)nc4c3)c3c(N)nccn32)C1 [Linsitinib] (partner 1 µM)
Summed up:
as §1

In the case of UMC-11, the relative viability in the assay with Carboplatin + Trametinib (first compound 0.08 µM) stood at 0.632; with Carboplatin + Trametinib (first compound 0.253 µM), 0.706; in the assay with Carboplatin + Trametinib (first compound 0.8 µM), 0.738; with Carboplatin + Trametinib (first compound 2.53 µM) it was 0.929; with Carboplatin + Trametinib (first compound 8 µM) it was 0.532; in the assay with Carboplatin + Foretinib (first compound 0.08 µM) it was 1.03. Also, the relative viability in the assay with Carboplatin + Foretinib (first compound 0.253 µM) was found to be 1.03; in the assay with Carboplatin + Foretinib (first compound 0.8 µM) it was 1.06; in the assay with Carboplatin + Foretinib (first compound 2.53 µM), 0.941; in the assay with Carboplatin + Foretinib (first compound 8 µM), 0.718; in the assay with Carboplatin + Vorinostat (first compound 0.08 µM), 0.425; with Carboplatin + Vorinostat (first compound 0.253 µM), 0.364. Further, the relative viability in the assay with Carboplatin + Vorinostat (first compound 0.8 µM) is 0.36; in the assay with Carboplatin + Vorinostat (first compound 2.53 µM), 0.37; with Carboplatin + Vorinostat (first compound 8 µM), 0.283; with MLN4924 + Linsitinib (first compound 0.04 µM), 0.645; with MLN4924 + Linsitinib (first compound 0.1265 µM), 0.331; in the assay with MLN4924 + Linsitinib (first compound 0.4 µM), 0.238. For the same cell line, the results for the relative viability with MLN4924 + Linsitinib (first compound 1.265 µM) and with MLN4924 + Linsitinib (first compound 4 µM) were 0.194 and 0.153, respectively.
